Source: patent US20240182445A1 (ONO PHARMACEUTICAL CO., LTD., priority 2019, published 2024)

Molecular target: T1, human TREK-1 (Homo sapiens, UniProt O95069)
T1 construct: expressed in transfected cells
T1 sequence (O95069 1-426): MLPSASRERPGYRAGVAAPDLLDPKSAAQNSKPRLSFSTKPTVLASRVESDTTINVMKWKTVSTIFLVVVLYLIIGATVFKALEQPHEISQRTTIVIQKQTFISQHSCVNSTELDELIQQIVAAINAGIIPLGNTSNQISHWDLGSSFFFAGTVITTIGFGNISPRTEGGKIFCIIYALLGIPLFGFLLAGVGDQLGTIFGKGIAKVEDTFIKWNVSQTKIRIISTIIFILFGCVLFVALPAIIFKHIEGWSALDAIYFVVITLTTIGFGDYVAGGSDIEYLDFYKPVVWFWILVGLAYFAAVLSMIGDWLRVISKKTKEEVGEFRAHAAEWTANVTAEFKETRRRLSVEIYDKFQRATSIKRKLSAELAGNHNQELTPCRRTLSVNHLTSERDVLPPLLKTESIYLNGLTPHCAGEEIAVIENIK
Assay: TREK-1 Thallium (Tl+) flux assay, Method 1
Assay type: cell-based
Details: TREK-1 Thallium (Tl+) flux assay; no *^12 (Method 2) mark on these rows
How it was run: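 Readout: Thallos fluorescence ratio, taken 25 s post-thallium relative to the pre-thallium baseline average, then converted to % inhibition. Cells were CHO-K1 stably expressing human TREK-1, dye-loaded and exposed to test compound (vehicle 0.3% DMSO) for 10 min prior to thallium stimulation.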

SMILES	IC50 [nM]
CC(C)(C)OC(=O)N[C@H]1CC[C@@H](n2ncc(Cl)c2C(=O)Nc2ncc(C#Cc3ccccc3)cc2F)CC1 [Compound 294, tert-butyl (cis-4-(4-chloro-5-((3-fluoro-5-(phenylethynyl)pyridin-2-yl)carbamoyl)-1H-pyrazol-1-yl)cyclohexyl)carbamate]	530
Cc1cc(C#Cc2ccccc2)cnc1NC(=O)c1c(Cl)cnn1CC1(C)CCN(C(=O)C2CC2)CC1 [Compound 295]	530
CC(=O)N1CCC[C@H](Cn2ncc(Cl)c2C(=O)Nc2ncc(C#Cc3ccccc3)cc2C)C1 [Compound 296, (S)-1-((1-acetylpiperidin-3-yl)methyl)-4-chloro-N-(3-methyl-5-(phenylethynyl)pyridin-2-yl)-1H-pyrazole-5-carboxamide]	530
CC(C)(C)OC(=O)N1CCC(n2ncc(Cl)c2C(=O)Nc2c(F)cc(C#Cc3ccccc3)cc2F)C1 (centres unmarked) [Compound 297, tert-butyl 3-(4-chloro-5-((2,6-difluoro-4-(phenyethynyl)phenyl)carbamoyl)-1H-pyrazol-1-yl)pyrroldine-1-carboxylate]	540
Cc1cc(C#Cc2ccccc2)cnc1NC(=O)c1c(Cl)cnn1[C@H]1CCN(C(=O)OC(C)(C)C)C1 [Compound 298, tert-butyl (S)-3-(4-chloro-5-((3-methyl-5-(phenylethynyl)pyridin-2-yl)carbamoyl)-1H-pyrazol-1-yl)pyrrolidine-1-carboxylate]	540
O=C(Nc1ncc(C#Cc2ccccc2)cc1F)c1c(Cl)cnn1C1CCN(C(=O)C2CCCC2)CC1 [Compound 299, 4-chloro-1-(1-(cyclopentanecarbonyl)piperidin-4-yl)-N-(3-fluoro-5-(phenylethynyl)pyridin-2-yl)-1H-pyrazole-5-carboxamide]	540
CC(C)(C)OC(=O)N1CCOC(Cn2ncc(Cl)c2C(=O)Nc2ncc(C#Cc3ccccc3)cc2F)C1 (centres unmarked) [Compound 300, tert-butyl 2-((4-chloro-5-((3-fluoro-5-(phenylethynyl)pyridin-2-yl)carbamoyl)-1H-pyrazol-1-yl)methyl)morpholine-4-carboxylate]	540
Cc1cc(C#Cc2ccccc2)cnc1NC(=O)c1c(Cl)cnn1CC1(C)CCN(C(=O)OC(C)(C)C)CC1 [Compound 301, tert-butyl 4-((4-chloro-5-((3-methyl-5-(phenylethynyl)pyridin-2-yl)carbamoyl)-1H-pyrazol-1-yl)methyl)-4-methylpiperidine-1-carboxylate]	540
Cc1cc(C#Cc2ccc(F)cc2)cnc1NC(=O)c1c(Cl)cnn1CC1(F)CCN(C(=O)C2CC2)CC1 [Compound 302, 4-chloro-1-((1-(cyclopropanecarbonyl)-4-fluoropiperidin-4-yl)methyl)-N-(5-((4-fluorophenyl)ethynyl)-3-methylpyridin-2-yl)-1H-pyrazole-5-carboxamide]	550
CC(=O)N1CCN(CCn2ncc(Cl)c2C(=O)Nc2ncc(C#Cc3ccccc3)cc2C)CC1 [Compound 303, 1-(2-(4-acetylpiperazin-1-yl)ethyl)-4-chloro-N-(3-methyl-5-(phenylethynyl)pyridin-2-yl)-1H-pyrazole-5-carboxamide]	560
Cc1cc(C#Cc2ccccc2)cnc1NC(=O)c1c(Cl)cnn1-c1ccc2occc2c1 [Compound 304, 1-(benzofuran-5-yl)-4-chloro-N-(3-methyl-5-(phenylethynyl)pyridin-2-yl)-1H-pyrazole-5-carboxamide]	570
Cc1cc(C#Cc2ccc(F)cc2)cnc1NC(=O)c1c(Cl)cnn1C1CCN(C(=O)C(C)C)C1 (centres unmarked) [Compound 305, 4-chloro-N-(5-((4-fluorophenyl)ethynyl)-3-methylpyridin-2-yl)-1-(1-isobutyrylpyrrolidin-3-yl)-1H-pyrazole-5-carboxamide]	570
Cc1cc(C#Cc2ccccc2)cnc1NC(=O)c1c(Cl)cnn1C1CCOC1 (centres unmarked) [Compound 306, 4-chloro-N-(3-methyl-5-(phenylethynyl)pyridin-2-yl)-1-(tetrahydrofuran-3-yl)-1H-pyrazole-5-carboxamide]	580
Cc1cc(C#Cc2ccccc2)cnc1NC(=O)c1c(Cl)cnn1C1CCN(C(=O)OC(C)(C)C)C1 (centres unmarked) [Compound 307, tert-butyl 3-(4-chloro-5-((3-methyl-5-(phenylethynyl)pyridin-2-yl)carbamoyl)-1H-pyrazol-1-yl)pyrrolidine-1-carboxylate]	580
Cc1cc(C#Cc2ccccc2)cnc1NC(=O)c1c(Cl)cnn1CCC1CCN(C(=O)OC(C)(C)C)CC1 [Compound 308, tert-butyl 4-(2-(4-chloro-5-((3-methyl-5-(phenylethynyl)pyridin-2-yl)carbamoyl)-1H-pyrazol-1-yl)ethyl)piperidine-1-carboxylate]	580
Cc1cc(C#Cc2ccccc2)cnc1NC(=O)c1c(Cl)cnn1[C@H]1CC[C@@H](NC(=O)OC(C)(C)C)CC1 [Compound 309, Tert-butyl (cis-4-(4-chloro-5-((3-methyl-5-(phenylethynyl)pyridin-2-yl)carbamoyl)-1H-pyrazol-1-yl)cyclohexyl)carbamate]	580
Cc1cc(C#Cc2ccc(F)cc2)cnc1NC(=O)c1c(Cl)cnn1C1CC2(CCN(C(=O)C3COCCO3)C2)C1 (centres unmarked) [Compound 310, 4-chloro-1-[6-(1,4-dioxane-2-carbonyl)-6-azaspiro[3.4]octan-2-yl]-N-{5-[(4-fluorophenyl)ethynyl]-3-methylpyridin-2-yl}-1H-pyrazole-5-carboxamide]	580
CC(=O)N1CCC(CCn2ncc(Cl)c2C(=O)Nc2ncc(C#Cc3cccs3)cc2F)CC1 [Compound 311, 1-(2-(1-acetylpiperidin-4-yl)ethyl)-4-chloro-N-(3-fluoro-5-(thiophen-2-ylethynyl)pyridin-2-yl)-1H-pyrazole-5-carboxamide]	590
CC(=O)N1CCC2(CC(n3ncc(Cl)c3C(=O)Nc3ncc(C#Cc4ccc(F)cc4)cc3C)C2)C1 (centres unmarked) [Compound 312, 1-(6-acetyl-6-azaspiro[3.4]octan-2-yl)-4-chloro-N-{5-[(4-fluorophenyl)ethynyl]-3-methylpyridin-2-yl}-1H-pyrazole-5-carboxamide]	590
CC(=O)N1CCC(Cn2ncc(Cl)c2C(=O)Nc2ncc(C#Cc3ccc(F)cc3)cc2C)C(F)(F)C1 (centres unmarked) [Compound 313, 1-((1-acetyl-3,3-difluoropiperidin-4-yl)methyl)-4-chloro-N-(5-((4-fluorophenyl)ethynyl)-3-methylpyridin-2-yl)-1H-pyrazole-5-carboxamide]	590
Cc1cc(C#Cc2ccc(F)cc2)cnc1NC(=O)c1c(Cl)cnn1CC1C2CC1CN(C(=O)C(C)C)C2 (centres unmarked) [Compound 314, 4-chloro-N-(5-((4-fluorophenyl)ethynyl)-3-methylpyridin-2-yl)-1-((3-isobutyryl-3-azabicyclo[3.1.1]heptan-6-yl)methyl)-1H-pyrazole-5-carboxamide]	590
CC(C)(C)OC(=O)N1CC[C@H](n2ncc(Cl)c2C(=O)Nc2ncc(C#Cc3ccccc3)cc2F)C1 [Compound 315, tert-butyl (S)-3-(4-chloro-5-((3-fluoro-5-(phenylethynyl)pyridin-2-yl)carbamoyl)-1H-pyrazol-1-yl)pyrrolidine-1-carboxylate]	600
Cc1ccc(C#Cc2cnc(NC(=O)c3c(Cl)cnn3[C@H]3CCOC3)c(C)c2)cc1 [Compound 316, (S)-4-chloro-N-(3-methyl-5-(p-tolylethynyl)pyridin-2-yl)-1-(tetrahydrofuran-3-yl)-1H-pyrazole-5-carboxamide]	610
Cc1cc(C#Cc2ccccc2)cnc1NC(=O)c1c(Cl)cnn1[C@H]1C[C@@H]2CN(C(=O)C(C)C)C[C@@H]2C1 [Compound 317, 4-chloro-N-[3-methyl-5-(phenylethynyl)pyridin-2-yl]-1-[(3aR,5s,6aS)-2-(2-methylpropanoyl)octahydrocyclopenta [c]pyrrol-5-yl]-1H-pyrazole-5-carboxamide]	610
CC1CN(C(=O)OC(C)(C)C)CCC1Cn1ncc(Cl)c1C(=O)Nc1ncc(C#Cc2ccccc2)cc1F (centres unmarked) [Compound 318, tert-butyl 4-((4-chloro-5-((3-fluoro-5-(phenylethynyl)pyridin-2-yl)carbamoyl)-1H-pyrazol-1-yl)methyl)-3-methylpiperidine-1-carboxylate]	610
Cc1cc(C#Cc2ccc(F)cc2)cnc1NC(=O)c1c(Cl)cnn1C[C@H]1CCCN(C(=O)C(C)C)C1 [Compound 320, (S)-4-chloro-N-(5-((4-fluorophenyl)ethynyl)-3-methylpyridin-2-yl)-1-((1-isobutyrylpiperidin-3-yl)methyl)-1H-pyrazole-5-carboxamide]	620
Cc1cc(C#Cc2ccccc2)cnc1NC(=O)c1c(Cl)cnn1CCC1CCCO1 (centres unmarked) [Compound 321, 4-chloro-N-(3-methyl-5-(phenylethynyl)pyridin-2-yl)-1-(2-(tetrahydrofuran-2-yl)ethyl)-1H-pyrazole-5-carboxamide]	630
Cc1cc(C#Cc2ccc(F)cc2)cnc1NC(=O)c1c(Cl)cnn1[C@H]1CCOC1 [Compound 322, (S)-4-chloro-N-(5-((4-fluorophenyl)ethynyl)-3-methylpyridin-2-yl)-1-(tetrahydrofuran-3-yl)-1H-pyrazole-5-carboxamide]	630
Cc1cc(C#Cc2ccccc2)cnc1NC(=O)c1c(Cl)cnn1CCN1CCN(C(=O)OC(C)(C)C)CC1 [Compound 323, tert-butyl 4-(2-(4-chloro-5-((3-methyl-5-(phenylethynyl)pyridin-2-yl)carbamoyl)-1H-pyrazol-1-yl)ethyl)piperazine-1-carboxylate]	630
